Source: article PMC13379085 (PLOS Neglected Tropical Diseases, 2026)

Biological target: T1, lysozyme (Homo sapiens, UniProt P61626)
T1 sequence (P61626 19-148): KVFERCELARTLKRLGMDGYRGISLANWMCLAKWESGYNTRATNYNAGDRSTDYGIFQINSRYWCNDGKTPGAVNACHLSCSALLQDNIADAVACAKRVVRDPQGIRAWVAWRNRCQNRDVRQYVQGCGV
Assay: Affinity capture proteomics with 197-bead in Leishmania infected macrophage lysate
Type: binding
Parameters: endogenous in cells; host or cells: PMA-differentiated THP-1 macrophages infected with L. mexicana (lysate)
Details: 197-bead vs control bead
Procedure: To generate cell lysate, ten million THP-1 cells were plated overnight in a 10 cm dish, then differentiated with 150 nM phorbol 12-myristate 13-acetate (PMA) for 72 hours. The resulting macrophages were infected with L. mexicana promastigotes at a multiplicity of infection of 1:10 and incubated for 18 hours. After infection, cells were washed three times with PBS to remove extracellular promastigotes. Cells were then collected by scraping and pelleted with centrifugation. The cell pellet was resuspended in cell buffer (50mM Tris-HCl, 150mM NaCl, 2mM EDTA, 0.5% triton-x-100) and subjected to five freeze-thaw cycles. Samples were centrifuged 14,000g x 10 minutes to remove cellular debris. Protein concentration of supernatant was determined by BCA assay and cell lysate was stored at -80 ° C until further use.
Functionalized agarose beads were made as follows. NHS activated agarose beads were washed three times to remove acetone and resuspended in PBS to create a slurry. 494 (197 with ligation chemical handle) was prepared in 0.3 mL at 25mM in DMSO and 1.7 mL PBS was added to 1 mL of agarose slurry for a final volume of 3 mL at a concentration of 2.5mM (10% v/v DMSO). […]
The peptide samples were resuspended in 15 μL of 5% ACN/0.1% formic acid and analyzed by LC-MS/MS using an Easy nLC 1200 coupled to a QExactive HF mass spectrometer (Thermo Scientific). […]

O=C(CNCc1cccc(F)c1)Nc1ccc(-n2cc(C(F)(F)F)nc2-c2ccc(-c3ccc(C(F)(F)F)cc3)cc2)cc1 [Compound 197]
affinity capture abundance of lysozyme, Log2 fold change: 6.57
